“Also recorded” adds a separate entry of the source.
What was measured:
[1] = test system: EKVX; experiment: NCI 60 cell panel SRB screen; format: cell-based, human; conditions: for GI50 / IC (TGI) / LC50: Homo sapiens, 5 log dose; for LC50: 48 h; for percent cell growth promotion: single dose 10 μM
[2] = test system: SF-539; experiment: NCI 60 cell panel SRB screen; format: cell-based, human; conditions: for GI50 / IC (TGI) / CC50: Homo sapiens, SF-539, 5 log dose; for CC50: 48 h, read-out: LC50 (the source's name); for percent cell growth promotion: SF-539, single dose 10 μM
[3] = test system: SK-MEL-2; experiment: NCI 60 cell panel SRB screen; format: cell-based; conditions: for GI50 / IC (TGI) / CC50: Homo sapiens; for IC (TGI): read-out: TGI; for CC50: SK-MEL-2, 5 log dose, 48 h, read-out: LC50 (the source's name); for percent cell growth promotion: SK-MEL-2, single dose 10 μM
[4] = test system: IGROV1; experiment: NCI 60 cell panel SRB screen; format: cell-based; conditions: Homo sapiens, IGROV-1; for GI50 / IC (TGI) / CC50: IGROV1, 5 log dose; for CC50: 48 h, read-out: LC50 (the source's name); for activity at 10 µM: IGROV1, single dose 10 μM, read-out: percent cell growth promotion
[5] = test system: full NCI 60 cell panel; experiment: NCI 60 cell panel SRB screen, whole panel; format: cell-based, human; conditions: for GI50: Homo sapiens, 60 cell, NCI 5-log dose, full 60 cell panel, read-out: GI50 values, range over the tested cell lines
[6] = test system: HCT-116 cells; experiment: Cell-cycle analysis by flow cytometry; format: cell-based; conditions: HCT-116, at GI50 concentration (1.20 µM), 24 h and 48 h
Method: The cells then were collected by trypsinization, washed with phosphate buffered saline (PBS), and fixed in ice-cold absolute alcohol. Thereafter, cells were stained, using Cycletest^TM Plus DNA Reagent Kit (BD Biosciences, San Jose, CA), according to the manufacturer’s instructions. Cell cycle distribution was determined using a FACS Calibur flow cytometer (BD Biosciences, San Jose, CA).

[7] = test system: HCT-116 cells; experiment: Annexin V-FITC/PI apoptosis detection; format: cell-based; conditions: HCT-116, at GI50, 24 h and 48 h
From the text: To further investigate the ability of compounds (7b, 13c and 16a) to induce apoptosis, an Annexin V (conjugated to FITC) apoptosis detection kit was employed. This assay detects phosphatidylserine (PS) expressed on the surface of apoptotic cells and fluoresces green after interacting with the labelled Annexin V. During early apoptosis, membrane asymmetry is lost, and PS translocates from the cytoplasmic side of the membrane to the external leaflet. Propidium iodide (PI), the counter stain used in this assay, has the ability to cross only compromised membranes to intercalate into the DNA. Therefore, PI is used to detect the late stages of apoptosis by the presence of red fluorescence.
Apoptosis was determined by staining cells with Annexin V–fluorescein isothiocyanate (FITC) and counterstaining with propidium iodide (PI) using the Annexin V–FITC/PI apoptosis detection kit (BD PharMingen, San Diego, CA, USA) according to the manufacturer's instructions. […] The cells then were collected by trypsinization and 0.5 × 10^6 cells were washed twice with phosphate-buffered saline (PBS) and stained with 5 μl Annexin V–FITC and 5 μl PI in 1× binding buffer (BD PharMingen) for 15 minutes at room temperature in the dark. Analyses were performed using FACS Calibur flow cytometer (BD Biosciences, San Jose, CA).

Structure (SMILES) | GI50 [1] | IC (TGI) [1] | LC50 [1] | percent cell growth promotion [1] | GI50 [2] | IC (TGI) [2] | CC50 [2] | percent cell growth promotion [2] | GI50 [3] | IC (TGI) [3] | CC50 [3] | percent cell growth promotion [3] | GI50 [4] | IC (TGI) [4] | CC50 [4] | activity at 10 µM [4] | GI50 [5] | effect on cell-cycle progression [6] | induction of apoptosis (Annexin-V positive cells), in words [7] | sensitivity in the 5 log dose assay, in words ([5]; NCI 5 log dose)
COc1cccc(NCc2nnc(Nc3ccc(Cl)cc3)c3ccccc23)c1 [Compound 16d, N-(4-Chlorophenyl)-4-((3-methoxyphenylamino)methyl)phthalazin-1-amine] | 0.58 µM | 6.4 µM | > 25 µM | -0.28% | 3.07 µM | 6.56 µM | 14 µM | -10.19% | 0.7 µM | 3.98 µM | 11 µM | -34.44% | 0.9 µM | 6.3 µM | > 25 µM | 1.51% | 0.15 to 8.41 µM | – | – | –
Cc1nnc(N2CCN(c3ccccc3F)CC2)c2ccccc12 [Compound 8h, 1–(4-(2-Fluorophenyl)piperazin-1-yl)-4-methylphthalazine] | – | – | – | – | – | – | – | – | – | – | – | – | – | – | – | 109% | – | – | – | –
Clc1ccc(Nc2nnc(COc3ccccc3)c3ccccc23)cc1 [Compound 17a, N-(4-Chlorophenyl)-4-(phenoxymethyl)phthalazin-1-amine] | 0.67 µM | 7.32 µM | > 25 µM | 6.53% | 3.12 µM | 7.58 µM | 18.4 µM | 8.42% | 0.97 µM | 5.13 µM | 15.1 µM | -26.47% | 1.14 µM | 6.37 µM | > 25 µM | 16.1% | 0.15 to 8.41 µM | – | – | –
O=C(Nc1ccc(Nc2nncc3ccccc23)cc1)c1ccc(Cl)cc1 [Compound 5b, 4-Chloro-N-(4-(phthalazin-1-ylamino)phenyl)benzamide] | – | – | – | – | – | – | – | – | – | – | – | – | – | – | – | 102% | – | – | – | –
Cc1nnc(Nc2ccc(NC(=O)c3ccc(Cl)cc3)cc2)c2ccccc12 [Compound 5d, 4-Chloro-N-(4–(4-methylphthalazin-1-ylamino)phenyl)benzamide] | – | – | – | – | – | – | – | – | – | – | – | – | – | – | – | 101% | – | – | – | –
Clc1ccc(Nc2nnc(CNc3ccccc3)c3ccccc23)cc1 [Compound 16a, N-(4-Chlorophenyl)-4-((phenylamino)methyl)phthalazin-1-amine] | 1.61 µM | 15 µM | > 25 µM | 16.86% | 3.67 µM | 8.1 µM | 17.8 µM | 33.99% | 2.16 µM | 5.83 µM | 14.5 µM | 8.63% | 1.93 µM | 10.7 µM | > 25 µM | 19.1% | 0.15 to 8.41 µM | induce cell cycle arrest at S phase boundary; also recorded: significant action at both S phase and sub-G1 cell population | increased the percentage of Annexin-V positive cells in lower right quadrant indicating early apoptosis | insensitive to prostate and MCF-7 breast cancer cell lines
Cc1nnc(Oc2ccc(NC(=O)Nc3ccc(Cl)cc3)cc2)c2ccccc12 [Compound 7e, 1–(4-Chlorophenyl)-3–(4-(4-methylphthalazin-1-yloxy)phenyl)urea] | – | – | – | – | – | – | – | – | – | – | – | – | – | – | – | 90.9% | – | – | – | –
Cc1nnc(Nc2ccc(NC(=O)Nc3ccc(Cl)cc3)cc2)c2ccccc12 [Compound 6e, 1–(4-Chlorophenyl)-3–(4-(4-methylphthalazin-1-ylamino)phenyl)urea] | 3.47 µM | 17.9 µM | 87.8 µM | – | 1.61 µM | 3.32 µM | 6.83 µM | – | 2.22 µM | 4.59 µM | 9.5 µM | – | 3.98 µM | 19.5 µM | > 100 µM | 62% | 0.15 to 8.41 µM | – | – | –
c1ccc(N2CCN(c3nncc4ccccc34)CC2)nc1 [Compound 8d, 1–(4-(Pyridin-2-yl)piperazin-1-yl)phthalazine] | – | – | – | – | – | – | – | – | – | – | – | – | – | – | – | 116% | – | – | – | –
Cc1nnc(N2CCN(c3ccccn3)CC2)c2ccccc12 [Compound 8i, 1-Methyl-4–(4-(pyridin-2-yl)piperazin-1-yl)phthalazine] | – | – | – | – | – | – | – | – | – | – | – | – | – | – | – | 112% | – | – | – | –
Cc1nnc(N2CCN(c3ccccc3)CC2)c2ccccc12 [Compound 8g, 1-Methyl-4–(4-phenylpiperazin-1-yl)phthalazine] | – | – | – | – | – | – | – | – | – | – | – | – | – | – | – | 112% | – | – | – | –
CCOC(=O)N1CCN(c2nncc3ccccc23)CC1 [Compound 8a, Ethyl 4-(phthalazin-1-yl)piperazine-1-carboxylate] | – | – | – | – | – | – | – | – | – | – | – | – | – | – | – | 120% | – | – | – | –
O=C(Nc1ccc(Cl)cc1)Nc1ccc(Oc2nnc(Cl)c3ccccc23)cc1 [Compound 13b, 1–(4-Chlorophenyl)-3–(4-(4-chlorophthalazin-1-yloxy)phenyl)urea] | – | – | – | 62.48% | – | – | – | 84.86% | – | – | – | 93.58% | – | – | – | 79.2% | – | – | – | –
CCOC(=O)N1CCN(c2nnc(C)c3ccccc23)CC1 [Compound 8f, Ethyl 4–(4-methylphthalazin-1-yl)piperazine-1-carboxylate] | – | – | – | – | – | – | – | – | – | – | – | – | – | – | – | 109% | – | – | – | –
O=C(Nc1ccc(Cl)cc1)Nc1ccc(Nc2nncc3ccccc23)cc1 [Compound 6b, 1–(4-Chlorophenyl)-3–(4-(phthalazin-1-ylamino)phenyl)urea] | 2.95 µM | 25.3 µM | > 100 µM | – | 2.88 µM | 11.5 µM | 36.6 µM | – | 2.7 µM | 7.7 µM | 44.8 µM | – | 2.52 µM | 30.7 µM | > 100 µM | 39.7% | 0.15 to 8.41 µM | – | – | –
O=C(Nc1ccccc1)Nc1ccc(Oc2nnc(Cl)c3ccccc23)cc1 [Compound 13a, 1–(4-(4-Chlorophthalazin-1-yloxy)phenyl)-3-phenylurea] | 2.31 µM | 12.1 µM | > 25 µM | 29.96% | 2.81 µM | 6.4 µM | 14.6 µM | -22.02% | 3.9 µM | 13.2 µM | > 25 µM | 9.53% | 3.32 µM | 7.92 µM | 18.9 µM | 37.2% | 0.15 to 8.41 µM | – | – | –
